The source of these data is US4442214A, “Thermo-stable micro-organism” (Development Finance Corporation of New Zealand, priority 1979, dated 1984).

Where two headings read alike, the source gives them in different places.

Data set [1] concerns NADH and succinate oxidases. Put plainly: Oxidase system activities (oxygen uptake) with inhibitors. It is filed as biochemical. The note with it: THERMUS T-351 oxidase systems. The protocol: Oxygen uptake was measured polarographically using a Rank electrode (Rank Brothers, Bottisham, Cambridge, England). The reaction mixture consisted of 0.1 M KH2 PO4 /Na2 HPO4 buffer pH 7.0, a suitable amount of membrane particle protein, 50 μmol of substrate (except in the case of NADH were 5 μmol were used), in a final volume of 2.5 ml.
Buffers were equilibrated at the desired temperature with sparged air for 30 minutes.
Particles were equilibrated in the electrode for 2 minutes prior to measurement of oxygen uptake. Rates were measured over the first minute.

Data set [2] deals with CALDOLYSIN
Put plainly: Response of CALDOLYSIN to inhibitors. It counts as biochemical, THERMUS T-351.

The conditions of data set [3]: 80° C.; published data; cited from earlier work.

In the case of `CCCCCCCc1cc(O)c2ccccc2[n+]1[O-]` [2-heptyl-4-hydroxyquinoline-N-oxide], in data set [1], the “relative effect on NADH oxidase and succinate oxidase” value (“relative effect” below) is given as “more effective inhibitors of succinate oxidase”.

Regarding `c1ccc(-c2ccnc3c2ccc2c(-c4ccccc4)ccnc23)cc1` [Bathophenanthroline], the “relative effect” value in data set [1] is given as “more effective inhibitors of succinate oxidase”. As for `O=C(O)CN(CCOCCOCCN(CC(=O)O)CC(=O)O)CC(=O)O` [EGTA], the “% Inhibitor of Activity” value was 18% in data set [2] (inhibitor 1 mM) and 45% in data set [2] (inhibitor 10 mM). Consider `O=C(O)CI` [Iodoacetic acid], for which the “% Inhibitor of Activity” value in data set [2] stood at 60%.

With `O=S(=O)(F)Cc1ccccc1` [Phenylmethyl Sulfonyl Fluoride], in data set [2] (inhibitor 10 mM), the “% Inhibitor of Activity” value amounted to 10%. On to `C=C(C)[C@H]1Cc2c(ccc3c2O[C@@H]2COc4cc(OC)c(OC)cc4[C@@H]2C3=O)O1` [Rotenone], for which the “relative effect” value in data set [1] was “more effect on the NADH oxidase”.

Take `CCC1(CCC(C)C)C(=O)NC(=O)NC1=O` [amytal]: the “relative effect” value in data set [1] is “affected NADH and succinate oxidases equally”. Same read-out and setting: as for antimycin A, the entry is “more effective inhibitors of succinate oxidase”.

B1: THERMOLYSIN: thermophilic protease from BACILLUS THERMOPROTEOLYTICUS, published data (protein, UniProt P00800 233-548, looked up)
Thermolysin: ITGTSTVGVGRGVLGDQKNINTTYSTYYYLQDNTRGNGIFTYDAKYRTTLPGSLWADADNQFFASYDAPAVDAHYYAGVTYDYYKNVHNRLSYDGNNAAIRSSVHYSQGYNNAFWNGSQMVYGDGDGQTFIPLSGGIDVVAHELTHAVTDYTAGLIYQNESGAINEAISDIFGTLVEFYANKNPDWEIGEDVYTPGISGDSLRSMSDPAKYGDPDHYSKRYTGTQDNGGVHINSGIINKAAYLISQGGTHYGVSVVGIGRDKLGKIFYRALTQYLTPTSNFSQLRAAAVQSATDLYGSTSQEVASVKQAFDAVGVK
As for B1, the HALF-LIFE in data set [3] was 1 h.
